Calls of active or inactive are those of the source. The rule behind the calls is not given here.

Assay [1] relates to MCF7. The experiment in a line: Induction of apoptosis in human MCF7 cells assessed as necrotic cells at 12.5 nM measured after 48 hrs by AnnexinV/PI double staining assays (reference value: 0.89%). It is filed as functional.
Assay [2] has as its system MCF7. In words: Induction of cell cycle arrest in human MCF7 cells assessed as accumulation of cells at G0/G1 phase at 500 nM measured after 24 hrs by flow cytometry (reference value: 61.73%). It is filed as functional. For orientation: In flow cytometry, cells or beads pass a laser one at a time.
For assay [3], the target named is DNA topoisomerase 2-alpha (Homo sapiens) (UniProt P11388). In words: Inhibition of human DNA topoisomerase 2 assessed as relaxation of supercoiled pBR322 DNA as substrate at 200 uM incubated for 30 mins by gel staining based electrophoresis analysis.
For another assay, the system named is NCI-H460. The experiment in a line: Antiproliferation activity against human NCI-H460 cells measured after 72 hrs incubation by MTT assay. It is filed as functional, cell-based. The following applies: NCI-H460, 72 h. For orientation: Tetrazolium assays rely on reduction of a dye to a coloured formazan, in cell work by metabolically active cells.
For assay [4], the system named is MCF7. The experiment in a line: Induction of apoptosis in human MCF7 cells assessed as necrotic cells at 50 nM measured after 48 hrs by AnnexinV/PI double staining assays (reference value: 0.89%). It is filed as functional.
Assay [5] concerns MCF7. In words: Induction of apoptosis in human MCF7 cells assessed as multinuclear cells at 5 nM measured after 24 hrs by fluorescent microscopy. It is filed as functional.
Assay [6] concerns the target DNA topoisomerase 2-alpha (Homo sapiens) (UniProt P11388). In words: Inhibition of human DNA topoisomerase 2 assessed as relaxation of supercoiled pBR322 DNA as substrate at 20 uM incubated for 30 mins by gel staining based electrophoresis analysis.
The subject of assay [7] is MCF7. The experiment in a line: Induction of cell cycle arrest in human MCF7 cells assessed as accumulation of cells at G0/G1 phase at 100 nM measured after 24 hrs by flow cytometry (reference value: 61.73%). Format: functional.
Assay [8] addresses T1, DNA topoisomerase 1 (Homo sapiens) (UniProt P11387).
T1 sequence (whole entry): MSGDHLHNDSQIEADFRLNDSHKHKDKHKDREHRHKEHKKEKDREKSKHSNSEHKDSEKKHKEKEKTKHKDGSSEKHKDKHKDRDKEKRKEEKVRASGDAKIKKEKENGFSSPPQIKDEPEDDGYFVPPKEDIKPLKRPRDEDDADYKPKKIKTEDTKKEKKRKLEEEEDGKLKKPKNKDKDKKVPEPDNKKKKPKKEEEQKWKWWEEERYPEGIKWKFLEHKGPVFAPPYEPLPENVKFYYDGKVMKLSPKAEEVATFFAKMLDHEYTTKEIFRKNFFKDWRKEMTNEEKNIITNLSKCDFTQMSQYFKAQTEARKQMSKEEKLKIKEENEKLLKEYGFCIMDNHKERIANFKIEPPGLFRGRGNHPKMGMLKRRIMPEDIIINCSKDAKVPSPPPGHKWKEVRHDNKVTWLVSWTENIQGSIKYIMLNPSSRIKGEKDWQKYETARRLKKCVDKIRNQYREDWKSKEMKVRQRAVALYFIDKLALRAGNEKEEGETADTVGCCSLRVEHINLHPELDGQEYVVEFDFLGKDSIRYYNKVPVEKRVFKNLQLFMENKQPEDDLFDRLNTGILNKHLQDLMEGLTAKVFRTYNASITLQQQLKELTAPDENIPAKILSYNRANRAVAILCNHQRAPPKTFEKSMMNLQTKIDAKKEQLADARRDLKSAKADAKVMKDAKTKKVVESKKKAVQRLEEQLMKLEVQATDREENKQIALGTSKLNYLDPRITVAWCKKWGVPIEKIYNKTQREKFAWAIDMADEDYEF
In words: Inhibition of human DNA topoisomerase 1 assessed as relaxation of supercoiled pBR322 DNA as substrate incubated for 30 mins by gel staining based electrophoresis analysis. The following applies: dose 20-200 µM.

For assay [9], the system named is MCF7. In words: Induction of apoptosis in human MCF7 cells assessed as early apoptotic cells at 25 nM measured after 48 hrs by AnnexinV/PI double staining assays (reference value: 5.32%). It is filed as functional.

Chain of DNA topoisomerase 2-alpha (Homo sapiens) (P11388 whole entry): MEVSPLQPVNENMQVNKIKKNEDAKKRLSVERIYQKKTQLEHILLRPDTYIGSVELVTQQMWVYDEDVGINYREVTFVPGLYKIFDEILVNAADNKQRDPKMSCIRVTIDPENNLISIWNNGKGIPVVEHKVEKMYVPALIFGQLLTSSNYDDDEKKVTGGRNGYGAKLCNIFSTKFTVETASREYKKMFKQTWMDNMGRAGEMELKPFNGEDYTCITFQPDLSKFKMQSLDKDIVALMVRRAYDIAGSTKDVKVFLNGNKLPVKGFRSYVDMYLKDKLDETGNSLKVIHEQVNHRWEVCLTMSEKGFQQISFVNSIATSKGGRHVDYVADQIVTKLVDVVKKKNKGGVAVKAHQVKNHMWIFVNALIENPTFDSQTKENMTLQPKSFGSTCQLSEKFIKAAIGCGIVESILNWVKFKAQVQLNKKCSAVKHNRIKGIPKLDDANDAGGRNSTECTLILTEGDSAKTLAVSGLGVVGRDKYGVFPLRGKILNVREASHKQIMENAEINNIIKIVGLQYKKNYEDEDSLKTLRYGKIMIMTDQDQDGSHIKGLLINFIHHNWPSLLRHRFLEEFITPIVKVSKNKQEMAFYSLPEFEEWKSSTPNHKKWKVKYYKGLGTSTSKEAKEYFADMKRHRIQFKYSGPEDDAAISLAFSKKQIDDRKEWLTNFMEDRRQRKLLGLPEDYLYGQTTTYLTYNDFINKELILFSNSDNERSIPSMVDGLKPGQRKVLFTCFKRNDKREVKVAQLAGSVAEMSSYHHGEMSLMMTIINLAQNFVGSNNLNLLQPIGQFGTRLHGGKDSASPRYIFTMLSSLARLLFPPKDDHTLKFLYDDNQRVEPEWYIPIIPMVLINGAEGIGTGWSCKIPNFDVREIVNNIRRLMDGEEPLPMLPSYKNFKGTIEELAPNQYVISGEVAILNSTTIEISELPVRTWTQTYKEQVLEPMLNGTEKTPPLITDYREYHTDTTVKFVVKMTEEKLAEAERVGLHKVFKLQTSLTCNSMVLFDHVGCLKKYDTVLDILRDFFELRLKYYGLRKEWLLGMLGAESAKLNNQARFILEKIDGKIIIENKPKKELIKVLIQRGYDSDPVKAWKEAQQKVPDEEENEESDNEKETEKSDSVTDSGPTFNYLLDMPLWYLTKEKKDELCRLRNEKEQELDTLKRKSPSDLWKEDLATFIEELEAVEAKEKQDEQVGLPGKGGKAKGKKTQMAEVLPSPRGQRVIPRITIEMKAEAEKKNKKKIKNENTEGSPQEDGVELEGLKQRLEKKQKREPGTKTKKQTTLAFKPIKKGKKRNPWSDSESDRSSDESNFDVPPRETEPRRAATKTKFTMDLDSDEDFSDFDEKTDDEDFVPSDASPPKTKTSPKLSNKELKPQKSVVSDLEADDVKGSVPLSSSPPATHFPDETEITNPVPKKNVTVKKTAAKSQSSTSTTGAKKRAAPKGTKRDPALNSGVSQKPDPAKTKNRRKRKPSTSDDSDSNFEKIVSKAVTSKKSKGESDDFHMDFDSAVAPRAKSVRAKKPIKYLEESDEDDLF

What is called IC50 is the point on the concentration scale where inhibition reaches its midpoint. Read a low IC50 as inhibition by little substance. As to `COc1cc(NS(=O)(=O)c2ccc3c(c2)c2ccc(N)cc2n3C)c(OC)cc1Cl`, the Activity came out at 0.14% in the assay on MCF7 [1]; 5.54% in the assay with MCF7 [2]; 0.08% with MCF7 [4]; 4.32% in the assay with MCF7 [7]; 46.14% with MCF7 [9]. Moreover, the inhibition entry in assay [3] and in assay [6] was “inactive” throughout. The IC50 in the assay with NCI-H460 turned out to be 18 nM. Besides, in the assay with MCF7 [5], the result was Active. In [8], the inhibition result was “Dose-Dependent Effect”.

Source of the values: ChEMBL document CHEMBL5523719, “Structure-activity relationship study of new carbazole sulfonamide derivatives as anticancer agents with dual-target mechanism” (Eur J Med Chem, 2024).
